The values below are quoted from earlier work in patent US20140038836A1, “Novel Pharmacogene Single Nucleotide Polymorphisms and Methods of Detecting Same” (priority 2012, published 2014).

Like-named read-outs stand apart in the source and are kept apart here.

The target in series [1] is T1, ADRA2A (alpha2A subtype alpha-2-adrenergic receptor) (Homo sapiens, UniProt P08913).
T1 sequence (P08913 1-465): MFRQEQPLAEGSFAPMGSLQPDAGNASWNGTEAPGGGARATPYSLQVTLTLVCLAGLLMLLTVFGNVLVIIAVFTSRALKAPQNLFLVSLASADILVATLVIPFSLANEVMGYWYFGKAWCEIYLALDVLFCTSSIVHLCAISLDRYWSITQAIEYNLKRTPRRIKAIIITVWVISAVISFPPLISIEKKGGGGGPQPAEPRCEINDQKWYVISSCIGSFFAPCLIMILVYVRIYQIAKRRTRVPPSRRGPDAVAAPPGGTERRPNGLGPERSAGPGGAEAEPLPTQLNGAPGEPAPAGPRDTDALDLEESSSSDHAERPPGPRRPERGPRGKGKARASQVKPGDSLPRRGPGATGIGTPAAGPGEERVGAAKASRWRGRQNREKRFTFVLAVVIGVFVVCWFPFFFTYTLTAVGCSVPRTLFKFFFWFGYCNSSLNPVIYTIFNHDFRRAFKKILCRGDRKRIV
The conditions noted are these: for rank order of potency for agonists: agonists of the alpha2A receptor; for rank order for antagonists: antagonists of the alpha2A receptor.

For series [2], the system named is schizophrenic Chinese patients from Shanghai. The following applies: 230-bp allele of (GT)n repeat or 230-bp/C-270/rs6265G haplotype versus other alleles or haplotypes.
For series [3], the system named is Japanese major depression sample. The following applies: 3435TT genotype (p=0.0008), haplotype block 3435C-2677G-1236T, 6 weeks.
Series [4] relates to patients with schizophrenia. The conditions noted are these: (T) allele of rs3813929.
The test system of series [5] is psychotic Caucasian patients. The following applies: 3435CC or 2677GG genotypes versus heterozygous or TT carriers.
The subject of series [6] is patients diagnosed with generalized anxiety disorder. The following applies: carriers of HTR2A rs7997012 G-allele.
The conditions of series [7]: homozygote ABCB1 3435TT carriers.
In series [8] the test system is patients of Asian ethnicity with Major Depressive Disorder. The following applies: carriers of 3435TT (rs1045642) genotype, p=0.001.
The test system of series [9] is Caucasian patients with major depression. The following applies: ABCB1 3435TT allele; P=0.042, 95% CI 1.01-1.86.

With `NCC(O)c1ccc(O)cc1` (stereo not shown) [p-octopamine], the “rank order of potency for agonists” value in [1] is reported as “oxymetazoline>clonidine>epinephrine>norepinephrine>phenylephrine>dopamine>p-synephrine>p-tyramine>serotonin=p-octopamine”.

In the case of `Cc1nc2n(c(=O)c1CCN1CCC(c3noc4cc(F)ccc34)CC1)CCCC2` [risperidone], the AUC of risperidone result by setting is: (3435TT versus 3435CC subjects who were CYP2D6*10/*10, P=0.001) “higher”; (between ABCB1 3435C>T genotypes, healthy subjects (n=72), 2 mg) “no significant differences”. Further, for the setting “3435TT versus 3435CC with CYP2D6*10/*10, P=0.006”, the “metabolic ratios of risperidone” value is “higher”. For the same molecule, the response to risperidone result in series [2] is reported as “better response”.

In the case of `Fc1ccc([C@@H]2CCNC[C@H]2COc2ccc3c(c2)OCO3)cc1` [paroxetine], the response to paroxetine result in series [3] is “poor response”. Further, the P-gp substrate property entry in the series with P-gp is recorded as “substrates of P-gp”.

For `Cc1cc2c(s1)Nc1ccccc1N=C2N1CCN(C)CC1` [olanzapine], the “effect on weight gain” value in [4] is recorded as “protective effect against weight-gain”.

Regarding `O=C(CCCN1CCC2(CC1)C(=O)NCN2c1ccccc1)c1ccc(F)cc1` [spiperone], the “rank order for antagonists” value in [1] is “yohimbine>phentolamine=mianserine>chlorpromazine=spiperone=prazosin>propanolol>alprenolol=pindolol”.

As for `CN1CCN(C2=Nc3cc(Cl)ccc3Nc3ccccc32)CC1` [clozapine], the dose-normalized clozapine levels result in series [5] is listed as “significantly lower”.

Take `COC(=O)[C@@H]1[C@H]2C[C@H]3c4[nH]c5ccccc5c4CCN3C[C@@H]2CC[C@@H]1O` [yohimbine]: in series [1], the “rank order for antagonists” value is recorded as “yohimbine>phentolamine=mianserine>chlorpromazine=spiperone=prazosin>propanolol>alprenolol=pindolol”.

Take `Clc1cccc(Cl)c1N=C1NCCN1` [clonidine]: the “rank order of potency for agonists” value in series [1] is “oxymetazoline>clonidine>epinephrine>norepinephrine>phenylephrine>dopamine>p-synephrine>p-tyramine>serotonin=p-octopamine”.

With `CNCC(O)c1ccc(O)cc1` (stereo not shown) [p-synephrine], the “rank order of potency for agonists” value in series [1] is listed as “oxymetazoline>clonidine>epinephrine>norepinephrine>phenylephrine>dopamine>p-synephrine>p-tyramine>serotonin=p-octopamine”.

On to `Cc1ccc(N(CC2=NCCN2)c2cccc(O)c2)cc1` [phentolamine], for which the “rank order for antagonists” value in series [1] is “yohimbine>phentolamine=mianserine>chlorpromazine=spiperone=prazosin>propanolol>alprenolol=pindolol”.

`C=CCc1ccccc1OCC(O)CNC(C)C` (stereo not shown) [alprenolol]: the “rank order for antagonists” value in series [1] was “yohimbine>phentolamine=mianserine>chlorpromazine=spiperone=prazosin>propanolol>alprenolol=pindolol”.

Regarding `COc1ccc(C(CN(C)C)C2(O)CCCCC2)cc1` (stereo not shown) [venlafaxine], the P-gp substrate property result with P-gp is on record as “substrates of P-gp”.

Turning to `COc1ccc(C(CN(C)C)C2(O)CCCCC2)cc1` (stereo not shown) [venlafaxine XR], the “treatment outcome over time” value in series [6] was “better treatment outcome”.

With `CN(C)CCCC1(c2ccc(F)cc2)OCc2cc(C#N)ccc21` (stereo not shown) [citalopram], the P-gp substrate property entry in the series with P-gp is on record as “substrates of P-gp”.

With `CN1CCN2c3ncccc3Cc3ccccc3C2C1` (stereo not shown) [mirtazapine], in the series on P-gp, the P-gp substrate property entry was “not substrates of P-gp”.

Take `NCCc1c[nH]c2ccc(O)cc12` [serotonin]: the “rank order of potency for agonists” value in series [1] was “oxymetazoline>clonidine>epinephrine>norepinephrine>phenylephrine>dopamine>p-synephrine>p-tyramine>serotonin=p-octopamine”.

Consider `Cc1cc(C(C)(C)C)c(O)c(C)c1CC1=NCCN1` [oxymetazoline], for which the “rank order of potency for agonists” value in series [1] is “oxymetazoline>clonidine>epinephrine>norepinephrine>phenylephrine>dopamine>p-synephrine>p-tyramine>serotonin=p-octopamine”.

Consider `C[C@H]1O[C@@H](O[C@H]2[C@@H](O)C[C@H](O[C@H]3[C@@H](O)C[C@H](O[C@H]4CC[C@@]5(C)[C@H](CC[C@@H]6[C@@H]5C[C@@H](O)[C@]5(C)[C@@H](C7=CC(=O)OC7)CC[C@]65O)C4)O[C@@H]3C)O[C@@H]2C)C[C@H](O)[C@@H]1O` [digoxin], for which, in series [7], the “digoxin plasma levels after oral administration” value was “increased”.

In the case of `CN(C)CCC[C@@]1(c2ccc(F)cc2)OCc2cc(C#N)ccc21` [escitalopram], the “remission on the antidepressant” value in [8] is on record as “slower remission”.

For `CN(C)CCC=C1c2ccccc2CCc2ccccc21` [amitriptyline], the P-gp substrate property result with P-gp is “substrates of P-gp”.

As for `NCCc1ccc(O)cc1` [p-tyramine], in series [1], the “rank order of potency for agonists” value is reported as “oxymetazoline>clonidine>epinephrine>norepinephrine>phenylephrine>dopamine>p-synephrine>p-tyramine>serotonin=p-octopamine”.

For the molecule `CN1CCN2c3ccccc3Cc3ccccc3C2C1` (stereo not shown) [mianserine], the “rank order for antagonists” value in [1] is recorded as “yohimbine>phentolamine=mianserine>chlorpromazine=spiperone=prazosin>propanolol>alprenolol=pindolol”.

As for `CN(C)CCCN1c2ccccc2Sc2ccc(Cl)cc21` [chlorpromazine], in series [1], the “rank order for antagonists” value was “yohimbine>phentolamine=mianserine>chlorpromazine=spiperone=prazosin>propanolol>alprenolol=pindolol”.

Turning to `CC(C)NCC(O)COc1cccc2[nH]ccc12` (stereo not shown) [pindolol], the “rank order for antagonists” value in [1] is “yohimbine>phentolamine=mianserine>chlorpromazine=spiperone=prazosin>propanolol>alprenolol=pindolol”.

On to `NC[C@H](O)c1ccc(O)c(O)c1` [norepinephrine], for which the “rank order of potency for agonists” value in series [1] was “oxymetazoline>clonidine>epinephrine>norepinephrine>phenylephrine>dopamine>p-synephrine>p-tyramine>serotonin=p-octopamine”.

Regarding `CNCCC=C1c2ccccc2CCc2ccccc21` [nortriptyline], the “OR for nortriptyline-induced postural hypotension” value in series [9] is 1.37.

On to `CNC[C@H](O)c1ccc(O)c(O)c1` [epinephrine], for which, in [1], the “rank order of potency for agonists” value is recorded as “oxymetazoline>clonidine>epinephrine>norepinephrine>phenylephrine>dopamine>p-synephrine>p-tyramine>serotonin=p-octopamine”.
